From publication PMC11408249, “Non-invasive in vivo imaging of changes in Collagen III turnover in myocardial fibrosis” (npj Imaging, 2024)

Biological target: T1, COL3 (Mus musculus, UniProt P08121)
T1 construct: from tissue; host or cells: infarcted left-ventricular myocardium of female CD1 mice, in vivo
T1 sequence (P08121 155-1219 limits assumed): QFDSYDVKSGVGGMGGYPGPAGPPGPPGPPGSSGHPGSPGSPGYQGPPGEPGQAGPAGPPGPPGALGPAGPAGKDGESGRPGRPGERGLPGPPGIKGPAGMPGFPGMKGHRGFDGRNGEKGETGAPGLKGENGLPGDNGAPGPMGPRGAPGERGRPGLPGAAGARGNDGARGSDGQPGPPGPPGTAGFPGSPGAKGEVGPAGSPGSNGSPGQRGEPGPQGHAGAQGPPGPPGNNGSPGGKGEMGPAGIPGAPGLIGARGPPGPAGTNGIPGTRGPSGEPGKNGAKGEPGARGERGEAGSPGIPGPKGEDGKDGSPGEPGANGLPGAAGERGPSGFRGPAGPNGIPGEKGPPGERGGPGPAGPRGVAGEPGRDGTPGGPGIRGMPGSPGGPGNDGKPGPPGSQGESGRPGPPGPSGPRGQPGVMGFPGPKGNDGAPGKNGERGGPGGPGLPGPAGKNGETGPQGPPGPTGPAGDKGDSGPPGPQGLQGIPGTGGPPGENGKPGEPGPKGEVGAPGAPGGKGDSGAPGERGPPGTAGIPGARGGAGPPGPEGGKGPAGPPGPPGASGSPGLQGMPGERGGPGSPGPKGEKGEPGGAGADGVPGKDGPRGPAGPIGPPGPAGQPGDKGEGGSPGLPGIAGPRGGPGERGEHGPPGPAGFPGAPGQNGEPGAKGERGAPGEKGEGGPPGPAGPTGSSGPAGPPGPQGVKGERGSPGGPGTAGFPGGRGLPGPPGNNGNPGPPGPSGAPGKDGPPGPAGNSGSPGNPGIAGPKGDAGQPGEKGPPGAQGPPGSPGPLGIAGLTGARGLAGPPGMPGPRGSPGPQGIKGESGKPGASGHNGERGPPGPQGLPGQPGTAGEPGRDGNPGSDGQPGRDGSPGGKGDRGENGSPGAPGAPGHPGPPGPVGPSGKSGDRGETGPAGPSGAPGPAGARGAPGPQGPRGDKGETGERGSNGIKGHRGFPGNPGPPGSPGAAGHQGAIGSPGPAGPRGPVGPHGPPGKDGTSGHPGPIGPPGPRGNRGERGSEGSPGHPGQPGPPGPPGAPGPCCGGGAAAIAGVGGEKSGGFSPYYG
Test: In vivo MRI of the aortic wall in a murine model of vascular remodelling
Details: ApoE−/− mice after aortic injury and 12 weeks high-fat diet, i.v. 0.2 mmol/kg, LGE MRI at 3 T up to 2 h post-injection
Description: Male ApoE^−/− mice were bred in-house and underwent surgery at 8–10 weeks of age (n = 6). Mice were anesthetised with 4% isoflurane mixed with 1% medical oxygen and anaesthesia was maintained at 2% during the surgery as previously reported. Briefly, mice underwent a laparotomy to expose the abdominal aorta, renal and iliac arteries. Two ligatures were inserted around the aorta (surgical silk, size 4–0, Aragó, Zaragoza, Spain), the first below the renal arteries and the second above the iliac bifurcation. A 30 G needle was introduced into the abdominal aorta at the level of the iliac bifurcation, via an aortic puncture. 1 mL of saline was infused into the aorta in three boluses. Finally, the needle was removed, and the puncture was repaired. The muscle and skin incisions were sutured (5-0 Vicryl, Ethicon Inc, Somerville, NJ), and the animals were allowed to recover. Mice were switched to a high-fat diet (HFD) containing 21% fat from lard and 0.15% (wt/wt) cholesterol (Special Diets Services, Witham, United Kingdom), on day 2 post-surgery for 12 weeks prior to the imaging experiments.
Anaesthesia was induced with 4% and maintained with 1–2% isoflurane during the MRI experiments. Mice (n = 3 per group) were placed supine on a single-loop surface coil (diameter = 47 mm) and the abdominal aorta was imaged up to 2 h post-injection of the monomeric (i.v. 0.2 mmol/kg, 0.2 mmol/kg Gd), the next day with the corresponding tetrameric collagen-binding probe (i.v 0.2 mmol/kg, 0.8 mmol/kg Gd) and the 3rd day using the scrambled probes (n = 2–3 per probe; i.v. 0.2 mmol/kg). This timeline ensures complete washout of one probe from the tissue before the administration of another probe. […]

## Ac-C-TEFPLRMRDWLKN [[Gd-DOTAMA]4-CBP2, tetrameric probe: tri-lysine scaffold bearing four Gd-DOTAMA units conjugated at the N-terminus of CBP2]
  signal enhancement of the remodelled aortic wall (in words): stronger enhancement at 60 min compared with corresponding monomeric probes

## Ac-C-RDKKVAEQS [[Gd-DOTAMA]4-SccCBP1, scrambled tetrameric Gd probe (Ac-C-…), negative control]
  signal enhancement of the remodelled aortic wall (in words): No signal enhancement
